Results published in patent publication US12325706B2, “Polymorphic form of sepiapterin” (PTC Therapeutics MP, Inc., priority 2016, dated 2025).
Values after ≈ are worked out from the molar mass of the structure shown. “Also recorded” adds a separate entry of the source.

How the values were obtained:
Type in all cases: physicochemical
[1] = Approximate solubility of starting material at RT
[2] = Storage stability of sepiapterin polymorph forms, HPLC purity; parameters: Impurity RRT 1.06 (HPLC) / Impurity RRT 1.08 (HPLC) / Impurity RRT 1.17 (HPLC) / Impurity RRT 1.21 (HPLC) / Impurity RRT 1.25 (HPLC) / Impurity RRT 0.62 (HPLC) / Impurity RRT 0.89 (HPLC) / Impurity RRT 0.95 (HPLC) / Impurity RRT 0.60 (HPLC): unit not given here; conditions: for % of Initial / Purity (area %): 10% RH
Experimental: (§1) Form A and F samples were placed in chambers with silica gel to remove water (the relative humidity was measured to be ˜10% RH) at different temperatures. Form D samples were placed in chambers with water (relative humidity was estimated to be ˜100% RH) at different temperatures.
(§2) The HPLC purities and XRD patterns were obtained for each of Form A/F/D samples stored at various temperatures.
Samples of sepiapterin free base polymorph Forms D, F, and A were stored at room temperature (RT), 35° C., and 50° C. The samples were analyzed by HPLC at 1 week and 4 week intervals.

[3] = Storage stability of sepiapterin polymorph forms, form change by XRD; conditions: 10% RH
Experimental: as §1, §2

[4] = Stability of crystalline Form A to grinding and sieving (XRPD); conditions: mortar and pestle, 140 mesh sieve
Experimental: A weight loss of 5.3% was observed up to 150° C. on TGA. […] (peak temperature). The starting material contained large particles with size over 100 μm. It was ground and characterized by XRPD, TGA and DSC. […] A weight loss of 1.9% was observed after N2 purging for 30 min to remove the absorbed water, followed by a second-step weight loss of 13.7% from 30° C. to 150° C. on TGA. […] (peak temperature).
Crystalline form A of sepiapterin of the invention was subjected to grinding and sieving process comprising grinding with a mortar and pestle and passing the material through a 140 mesh sieve. […] This process was repeated until all material was passed through the sieve.

[5] = 35° C./10% RH, 1 w, listed as Polymorph A
[6] = 35° C./10% RH, 4 w, listed as Polymorph A
[7] = 50° C./10% RH, 1 w, listed as Polymorph A
[8] = 50° C./10% RH, 4 w, listed as Polymorph A
[9] = RT/10% RH, 1 w, listed as Polymorph A
[10] = RT/10% RH, 4 w, listed as Polymorph A

## C[C@H](O)C(=O)C1=Nc2c(nc(N)[nH]c2=O)NC1 [Form A, sepiapterin]
[1]; organic solvent or mixture, 1,4-Dioxane, RT
  solubility: < 1700 µg/mL
[1]; organic solvent or mixture, 2-MeTHF, RT
  solubility: < 2000 µg/mL
[1]; organic solvent or mixture, ACN, RT
  solubility: < 1700 µg/mL
[1]; organic solvent or mixture, Acetone, RT
  solubility: < 1800 µg/mL
[1]; organic solvent or mixture, CHCl3, RT
  solubility: < 1600 µg/mL
[1]; organic solvent or mixture, DCM, RT
  solubility: < 1500 µg/mL
[1]; organic solvent or mixture, DMAc, RT
  solubility: > 28000 µg/mL
[1]; organic solvent or mixture, DMSO, RT
  solubility: > 34000 µg/mL
[1]; organic solvent or mixture, EtOAc, RT
  solubility: < 2500 µg/mL
[1]; organic solvent or mixture, EtOH, RT
  solubility: < 1500 µg/mL
[1]; organic solvent or mixture, IPA, RT
  solubility: < 1300 µg/mL
[1]; organic solvent or mixture, IPAc, RT
  solubility: < 2700 µg/mL
[1]; organic solvent or mixture, MIBK, RT
  solubility: < 2000 µg/mL
[1]; organic solvent or mixture, MTBE, RT
  solubility: < 2000 µg/mL
[1]; organic solvent or mixture, MeOH, RT
  solubility: 1700 to 3400 µg/mL (≈ 7.17 to 14.3 mM)
[1]; organic solvent or mixture, NMP, RT
  solubility: > 48000 µg/mL
[1]; organic solvent or mixture, THF, RT
  solubility: < 1900 µg/mL
[1]; organic solvent or mixture, Toluene, RT
  solubility: < 2400 µg/mL
[1]; organic solvent or mixture, n-Heptane, RT
  solubility: < 2100 µg/mL
[1]; water, H2O, RT
  solubility: 1600 to 3200 µg/mL (≈ 6.74 to 13.5 mM)
[2]; 35° C./10% RH, 1 w
  Impurity RRT 0.62 (HPLC): 0.24
  Impurity RRT 0.89 (HPLC): <0.05
  Impurity RRT 1.06 (HPLC): <0.05
  Impurity RRT 1.21 (HPLC): <0.05
  Impurity RRT 1.25 (HPLC): <0.05
[2]; [5]
  Impurity RRT 0.95 (HPLC): 1.36
  Impurity RRT 1.08 (HPLC): 0.28
  Impurity RRT 1.17 (HPLC): 0.16
  Sepiapterin RRT 1.00 (HPLC), amount of sepiapterin: 97.97%
[2]; 35° C./10% RH, 4 w
  Impurity RRT 0.62 (HPLC): 1.03
  Impurity RRT 0.89 (HPLC): <0.05
  Impurity RRT 1.06 (HPLC): <0.05
  Impurity RRT 1.08 (HPLC): <0.05
  Impurity RRT 1.21 (HPLC): <0.05
  Impurity RRT 1.25 (HPLC): <0.05
[2]; [6]
  Impurity RRT 0.95 (HPLC): 2.70
  Impurity RRT 1.17 (HPLC): 0.16
  Sepiapterin RRT 1.00 (HPLC), amount of sepiapterin: 96.06%
[2]; 50° C./10% RH, 1 w
  Impurity RRT 0.62 (HPLC): 0.68
  Impurity RRT 0.89 (HPLC): <0.05
  Impurity RRT 1.06 (HPLC): 0.45
  Impurity RRT 1.21 (HPLC): <0.05
  Impurity RRT 1.25 (HPLC): <0.05
[2]; [7]
  Impurity RRT 0.95 (HPLC): 3.48
  Impurity RRT 1.08 (HPLC): 0.08
  Impurity RRT 1.17 (HPLC): 0.16
  Sepiapterin RRT 1.00 (HPLC), amount of sepiapterin: 95.15%
[2]; 50° C./10% RH, 4 w
  Impurity RRT 0.62 (HPLC): 2.59
  Impurity RRT 0.89 (HPLC): 0.06
  Impurity RRT 1.06 (HPLC): <0.05
  Impurity RRT 1.17 (HPLC): 0.17
  Impurity RRT 1.21 (HPLC): 0.06
  Impurity RRT 1.25 (HPLC): 0.11
[2]; [8]
  Impurity RRT 0.95 (HPLC): 7.67
  Impurity RRT 1.08 (HPLC): 0.85
  Sepiapterin RRT 1.00 (HPLC), amount of sepiapterin: 88.49%
[2]; 50° C./10% RH, 4 w, listed as polymorph A
  Sepiapterin RRT 1.00 (HPLC), amount of sepiapterin: 88.49%
[2]; Initial
  Impurity RRT 0.89 (HPLC): <0.05
  Impurity RRT 1.06 (HPLC): <0.05
  Impurity RRT 1.08 (HPLC): <0.05
  Impurity RRT 1.17 (HPLC): 0.17
  Impurity RRT 1.21 (HPLC): <0.05
  Impurity RRT 1.25 (HPLC): <0.05
[2]; Initial, listed as Polymorph A
  Impurity RRT 0.62 (HPLC): 0.08
  Impurity RRT 0.95 (HPLC): 0.42
  Sepiapterin RRT 1.00 (HPLC), amount of sepiapterin: 99.33%
[2]; Initial, listed as polymorph A
  Sepiapterin RRT 1.00 (HPLC), amount of sepiapterin: 99.33%
[2]; RT/10% RH, 1 w
  Impurity RRT 0.62 (HPLC): 0.16
  Impurity RRT 0.89 (HPLC): <0.05
  Impurity RRT 1.06 (HPLC): <0.05
  Impurity RRT 1.17 (HPLC): 0.16
  Impurity RRT 1.21 (HPLC): <0.05
  Impurity RRT 1.25 (HPLC): <0.05
[2]; [9]
  Impurity RRT 0.95 (HPLC): 0.77
  Impurity RRT 1.08 (HPLC): 0.11
  Sepiapterin RRT 1.00 (HPLC), amount of sepiapterin: 98.80%
[2]; RT/10% RH, 4 w
  Impurity RRT 0.62 (HPLC): 0.37
  Impurity RRT 0.89 (HPLC): <0.05
  Impurity RRT 1.06 (HPLC): <0.05
  Impurity RRT 1.08 (HPLC): <0.05
  Impurity RRT 1.17 (HPLC): 0.16
  Impurity RRT 1.21 (HPLC): <0.05
  Impurity RRT 1.25 (HPLC): <0.05
[2]; [10]
  Impurity RRT 0.95 (HPLC): 1.29
  Sepiapterin RRT 1.00 (HPLC), amount of sepiapterin: 98.18%
[2]; initial, before storage, listed as Form λ
  Purity of initial samples by HPLC: 99.3 area %
[2]; storage 1 week, 35° C.
  % of Initial: 98.6%
  Purity (area %): 98.0 area %
[2]; storage 1 week, 50° C.
  % of Initial: 95.8%
  Purity (area %): 95.2 area %
[2]; storage 1 week, RT
  % of Initial: 99.5%
  Purity (area %): 98.8 area %
[2]; storage 4 weeks, 35° C.
  % of Initial: 96.7%
  Purity (area %): 96.1 area %
[2]; storage 4 weeks, 50° C.
  % of Initial: 89.1%
  Purity (area %): 88.5 area %
[2]; storage 4 weeks, RT
  % of Initial: 98.8%
  Purity (area %): 98.2 area %
[2]; storage up to 4 weeks at RT, 35° C., 50° C.
  Stability on storage as determined by HPLC, comparison of forms in words: significantly less stability
[3]; storage 1 week, 35° C.
  Form change: No
[3]; storage 1 week, 50° C.
  Form change: No
[3]; storage 1 week, RT
  Form change: No
[3]; storage 4 weeks, 35° C.
  Form change: No
[3]; storage 4 weeks, 50° C.
  Form change: No
[3]; storage 4 weeks, RT
  Form change: No
[4]
  Physical form stability to grinding and sieving (XRPD): no form change was observed after grinding; also recorded: stable to the grinding and sieving process; also recorded: confirms the physical form stability
